According to US20020193377A1, “Quinazolines as MMP-13 inhibitors” (priority 2001, published 2002):

Target: T1, human collagenase-3 catalytic domain enzyme (MMP13) (Homo sapiens, UniProt P45452)
T1 construct: human collagenase-3 catalytic domain enzyme
Experiment: MMP13CD Thiopeptolide Assay
Type: biochemical
Experimental: MMP13CD Thiopeptolide Assay: Proteolysis of the thiopeptolide substrate Ac-Pro-Leu-Gly-thioester-Leu-Leu-Gly-OEt is used as the primary screen to determine IC50 values for MMP13 inhibitors. A 100 μl reaction contains 50 mM HEPES, 10 mM CaCl2, pH 7.0 (RT), 1 mM 5,5′-dithiobis(2-nitrobenzoic acid) (DTNB), 100 μM substrate, inhibitor in 2.0% DMSO and 2.5 nM human collagenase-3 catalytic domain enzyme. Inhibitors are screened from 100 μM to 0.5 nM. […] Percentage of control velocity in inhibited treatments is plotted against inhibitor concentration to calculate IC50 values.

| Structure (SMILES) | IC50 [nM] |
| --- | --- |
| O=C(NCc1cccnc1)c1ccc2[nH]c(=O)n(Cc3ccccc3)c(=O)c2c1 [Example 5, 3-Benzyl-2,4-dioxo-1,2,3,-tetrahydroquinazoline-6-carboxylic acid (3-pyridylmethyl)amide] | 193 |
| COc1ccc(CNC(=O)c2ccc3[nH]c(=O)n(Cc4ccccc4)c(=O)c3c2)cc1 [Example 6, 3-Benzyl-2,4-dioxo-1,2,3,4-tetrahydroquinazoline-6-carboxylic acid 4-methoxybenzylamide] | 183 |
| O=C(NCc1ccc(Cl)cc1)c1ccc2[nH]c(=O)n(Cc3ccccc3)c(=O)c2c1 [Example 7, 3-Benzyl-2,4-dioxo-1,2,3,4-tetrahydroquinzaoline-6carboxylic acid 4-chlorobenzylamide] | 21 |
| Cc1ccc(CNC(=O)c2ccc3[nH]c(=O)n(Cc4ccccc4)c(=O)c3c2)cc1 [Example 8, 3-Benzyl-2,4-dioxo-1,2,3,4-tetrahydroquinazoline-6-carboxylic acid 4-methylbenzylamide] | 1870 |
| Cn1c(=O)n(Cc2ccccc2)c(=O)c2cc(C(=O)NCc3ccc4c(c3)OCO4)ccc21 [Example 9, 3-Benzyl-1-methyl-2,4-dioxo-1,2,3,4-tetrahydroquinazoline-6-carboxylic acid (benzo[1,3]dioxol-5-ylmethyl)amide] | 366 |
| Cn1c(=O)n(Cc2ccccc2)c(=O)c2cc(C(=O)NCc3ccccc3)ccc21 [Example 10, 3-Benzyl-1-methyl-2,4-dioxo-1,2,3,4-tetrahydroquinazoline-6carboxylic acid benzylamide] | 49 |
| COC(=O)c1ccc(CNC(=O)c2ccc3c(c2)c(=O)n(Cc2ccccc2)c(=O)n3C)cc1 [Example 11, Methyl 4-({[1-(3-benzyl-1-methyl-2,4-dioxo-1,2,3,4-tetrahydroquinazolin-6-yl)methanoyl]amino}methyl)benzoate] | 167 |
| COc1cc(CNC(=O)c2ccc3c(c2)c(=O)n(Cc2ccccc2)c(=O)n3C)ccc1O [Example 12, 3-Benzy-1-methyl-2,4-dioxo-1,3,3,4-tetrahydroquinazoline-6-carboxylic acid 4-hydroxy-3-methoxybenzylamide] | 1320 |
| COc1ccc(CNC(=O)c2ccc3c(c2)c(=O)n(Cc2ccccc2)c(=O)n3C)cc1 [Example 13, 3-Benzyl-1-methyl-2,4-dioxo-1,2,3,4-tetrahydroquinazoline-6-carboxylic acid 4-methoxybenzylamide] | 5 |

Continued, values first:

| IC50 [nM] | Structure (SMILES) |
| --- | --- |
| 57 | Cn1c(=O)n(Cc2ccccc2)c(=O)c2cc(C(=O)NCc3ccncc3)ccc21 [Example 14, 3-Benzyl-1-methyl-2,4-dioxo-1,2,3,4-tetrahydroquinazoline-6-carboxylic acid (4-pyridylmethyl)amide] |
| 2250 | Cn1c(=O)n(CCc2ccccc2)c(=O)c2cc(C(=O)NCc3ccc4c(c3)OCO4)ccc21 [Example 15, 1-Methyl-2,4-dioxo-3-phenethyl-1,2,3,4-tetrahydroquinazoline-6-carboxylic acid (benzo[1,3]dioxol-5-ylmethyl)amide] |
| 42 | COc1ccc(Cn2c(=O)[nH]c3ccc(C(=O)NCc4ccc5c(c4)OCO5)cc3c2=O)cc1 [Example 16, 3-(4-Methoxybenzyl)-2,4-dioxo-1,2,3,4-tetrahydroquinazoline-6-carboxylic acid (benzo[1,3]dioxol-5-ylmethyl)amide] |
| 12 | COc1ccc(Cn2c(=O)c3cc(C(=O)NCc4ccc5c(c4)OCO5)ccc3n(C)c2=O)cc1 [Example 17, 3-(4-Methoxybenzyl)-1-methyl-2,4-dixo-1 3,4-tetrahydroquinazoline-6-carboxylic acid (benzo[1,3]dioxo-5-ylmethyl)amide] |
| 51 | COc1ccc(CNC(=O)c2ccc3c(c2)c(=O)n(Cc2ccc(OC)cc2)c(=O)n3C)cc1 [Example 18, 3-(4-Methoxybenzyl)-1-methyl-2,4-dioxo-1,2,3,4-tetrahydroquinazoline-6-carboxylic acid 4-methoxybenzylamide] |
